Laboratory results published in patent US20220125746A1, “METHOD OF PREVENTING OR TREATING TREATMENT-INDUCED GASTROINTESTINAL INJURY” (priority 2019, published 2022).
Structures can show the parent of a compound that is named as a salt.

Key:
mouse colonic organoids = assay: Mouse colonic organoids treated with CPT; type: cell-based; conditions: CPT 500 nM 24 h
Description: Fresh mucosal scrapings from 10 cm of jejunum were washed in cold PBS, resuspended in 700 ul of RNA lysis buffer, and homogenized in a Dounce homogenizer. RNA was isolated using the Quick-RNA MiniPrep kit (Zymo Research) according to the manufacturer's instructions. Organoids were freed from Matrigel using Cell Recovery Solution (Corning), as described in, before RNA isolation. Complementary DNA was generated from 2 ug of total RNA from mice or ˜100 ng of total RNA from colonic organoids and was pooled from three mice or three wells of organoid culture per treatment group using SuperScript III reverse transcriptase (Invitrogen) and random primers. Gene expression was normalized to Gapdh. Representative results are shown, and similar results were obtained in at least three independent experiments. Details on mouse and human primers are found in Tables 1 and 2.
Mouse crypt isolation, organoid development, and passage were done as previously described with minor modifications. In brief, the complete culture medium for mouse intestinal organoids was slightly modified as follows: advanced Dulbecco's modified Eagle medium (DMEM)/F12 (12634-010, Invitrogen) was supplemented with 100 units/ml penicillin/0.1 mg/ml streptomycin (Invitrogen), 2 mM GlutaMAX (ThermoFisher), 20% (vol/vol) FBS (S11150, ATLANTA Biologicals), and WRN-conditioned medium (50%, vol/vol). Freshly isolated crypts were cultured with the same medium plus 10 μM Y-27632 (Y0503 Sigma) and 100 μg/ml Primocin (ant-pm-1, InvivoGen). For CPT and PUMAi treatment, intestinal organoids were passaged and re-plated in 25 μL of Matrigel (356231, Corning) in 24-well plates 24 hours before treatment with CPT (0.5 μM, C9911, Sigma-Aldrich) and PUMAi (50 μM) for 24 hours. The CPT-containing medium was replaced with complete medium containing PUMAi (50 μM). Three groups (treatment control, CPT only, and CPT plus PUMAi) were set up. Organoids 100 μm or greater in diameter were enumerated on day 6 after CPT treatment. Similar results were obtained from at least three independent experiments with triplicate wells in each experiment.

C57BL/6J mice = assay: Survival and GI injury after three daily doses of CPT-11; type: in vivo, mouse; conditions: for lethality: three consecutive daily doses, C57BL/6J WT mice
Description: (§1) Immediately after sacrifice, about 10-cm portion of the jejunum was removed and carefully rinsed with ice-cold saline. The tissue was opened longitudinally and tacked to a foam board for fixation overnight in 10% formalin. Tissues were then rolled up into “swiss rolls” and embedded in paraffin. For tumor analysis, flank tumors were removed, measured, and cut into pieces for either formalin fixation or flash freezing in a dry ice/ethanol bath. Tissue sections (5 um) were deparaffinized and rehydrated through graded ethanols. Histological analysis was performed by hematoxylin and eosin (H&E) staining.
; CPT-11). […] . […] BH3-only proteins BIM and NOXA were not induced by CPT-11 or affected by Puma KO (FIG. 8F). […] . […] . Histological analysis confirmed lethal GI injury in WT and p53 KO mice on day 5, showing severe loss of crypts and shortening of villi, which was abrogated in Puma KO mice (FIG. 1F).

[1] = test system: Lewis lung carcinoma (LLC) tumors; assay: LLC tumor-bearing mice treated with CPT-11 six times over 2 weeks; type: in vivo, mouse; conditions: LLC tumor experiments
Description: For tumor experiments, 4 million LLC cells [American Type Culture Collection (ATCC)] were injected into the flanks of WT and Puma KO mice and allowed to grow for 11 days. Mice were then treated with CPT-11 (200 mg/kg) three times per week for 2 weeks. PUMAi (10 mg/kg) or vehicle control was administered by intraperitoneal injection 2 hours before and 20 hours after each dose of CPT-11. Mice were sacrificed 4 hours after the final CPT-11 treatment.
For tumor experiments, mice were treated with CPT-11 three times per week for two weeks. Mice receiving PUMAi were treated 2 hours before each dose of CPT-11 and 20 hours after. Mice were sacrificed four hours after the final CPT-11 treatment (FIG. 13A). Tumor volumes were measured with calipers and calculated as volume=(length x width2)/2. Mice were 7-9 weeks old, and roughly equal numbers of male and female animals were used. To account for variations in starting body weights, the values in FIGS. 3 and 4 are expressed as a percentage of the respective mouse weights at the time of the first CPT-11 treatment.
as §1
Average villus height was determined by measuring 40 to 50 villi from different locations of the small intestine, from at least three different animals per group, and reported as means A} SEM. Measurements were made from the top of the crypt to the tip of the villus using 100 Å˜H&E images and SPOT 5.1 Advanced software (Diagnostic Instruments Inc.).
Neutrophil IF. Sections were prepared as described above. […] Sections were then incubated with AlexaFluor-594 goat antirat secondary antibodies (1:200; A11007; Invitrogen) for 1 hour at room temperature and counterstained with VectaShield plus DAPI.

[2] = colorectal cancer patients; cited from earlier work
LGR5+ stem cells = conditions: after six doses of CPT-11
Description: WT and Puma KO mice carrying the Lgr5-EGFP-IRES-creERT2 marking allele were treated with CPT-11 and PUMAi over 2 weeks as in FIGS. 5A-5G and analyzed for intestinal phenotypes. (FIG. 6A) GFP (LGR5) immunofluorescence in intestinal crypts. Arrows indicate LGR5^+ (GFP) crypts. Scale bar, 100 um. (FIG. 6B) Quantitation of intestinal crypts containing at least one GFP^+ (LGR5^+) cell. (FIG. 6C) Top: Olfm4 RNA ISH in intestinal crypts. Scale bar, 50 um. Asterisks indicate Olfm4+ crypt cells. Bottom: Percentage of crypts containing at least one Olfm4+ cell. (FIG. 6D) MMP7 immunofluorescence in intestinal crypts. Scale bar, 100 um. (FIG. 6E) Quantitation of MMP7+ crypt cells at the crypt base (CBC region). (FIG. 6F) Top: GFP (LGR5) and MMP7 immunofluorescence in intestinal crypts. Scale bar, 20 um. Asterisks indicate LGR5^+/MMP7^+ cell pairs. Bottom: Quantitation of LGR5^+/MMP7^+ cell pairs per crypt. In (FIG. 6A), (FIG. 6D), and (FIG. 6F), DAPI was used to stain nuclei. In (FIG. 6B), (FIG. 6C), (FIG. 6E), and (FIG. 6F), values are means+SEM; n=3 mice. *P<0.05, **P<0.01, and ***P<0.001 (one-way ANOVA with Tukey post hoc test).
LGR5 (GFP) IF. Sections were deparaffinized and rehydrated through graded ethanols. Antigen retrieval was performed by boiling for 10 minutes in 0.1 M citrate buffer (pH 6.0) with 1 mM EDTA. Non-specific antibody binding was blocked using 20% goat serum (Invitrogen) at room temperature for 30 min. […] Sections were then washed in PBS and mounted with VectaShield+DAPI (Vector Labs).
MMP7 IF. Sections were prepared as described above. Non-specific antibody binding was blocked using 20% chicken serum (Invitrogen) at room temperature for 30 min. Sections were washed in PBS and incubated overnight at 4 °C in a humidified chamber with 1:100 diluted goat anti-MMP7 (AF2967; R&D Systems). […] Sections were then washed in PBS and mounted with VectaShield+DAPI (Vector Labs) for visualization.
LGR5(GFP)/1VIMP7 IF. Sections were prepared as described above. Non-specific antibody binding was blocked using 20% chicken serum (Invitrogen) at room temperature for 30 min. Sections were then stained for GFP as described above, followed by staining for MMP7 as described.
ISH for Olfm4 was carried out with the RNAscope 2.0 BROWN kit (Advanced Cell Diagnostics) according to the manufacturer's instructions. Briefly, tissue sections were baked for 60 min at 60 ÅåC, then deparaffinized in xylene, and rehydrated through graded ethanols. Sections then underwent three pretreatment steps, probe hybridization, six amplification steps, development, and counterstaining.

intestinal crypts = assay: CPT-11-induced intestinal crypt apoptosis in mice (TUNEL, active caspase-3); conditions: single dose 200 mg/kg, WT mice, TUNEL and active caspase-3
Description: Puma+/+ (WT) and Puma−/− (Puma KO) mice (52) were generated in-house by heterozygote breeding. WT and Puma KO alleles were genotyped from genomic DNA isolated from tail snips, as described (52). p53−/− (p53 KO) mice were purchased from the Jackson Laboratory. […] All strains are in or have been backcrossed with the C57BL/6 background for more than 10 generations (F10). Mice were housed in microisolator cages in a room illuminated from 07:00 to 19:00 hours (12:12-hour light/dark cycle), with access to water and chow ad libitum.
Rehydrated sections were treated with 3% hydrogen peroxide (immunochemistry only), followed by antigen retrieval for 10 min in boiling 0.1 M citrate buffer (pH 6.0) with 1 mM EDTA. Apoptosis was analyzed by TUNEL staining with the ApopTag Peroxidase In Situ Apoptosis Detection kit (Chemicon International) according to the manufacturer's instructions.
Active caspase 3 IHC. Sections were deparaffinized and rehydrated through graded ethanols. Rehydrated sections were then treated with 3% hydrogen peroxide, followed by antigen retrieval for 10 minutes in boiling 0.1 M citrate buffer (pH 6.0) with 1 mM EDTA. Non-specific antibody binding was blocked using 20% goat serum (Invitrogen) at room temperature for 30 minutes.

[3] = test system: colon cancer cell line DLD1; assay: PUMA-induced apoptosis inhibition in DLD1
Description: (§2) PUMAi was added to cells at 25 uM at the same time as CPT.
(§3) A minimum of 300 cells per treatment were analyzed in triplicate.

[4] = test system: colon cancer cell line HCT-116; assay: PUMA-induced apoptosis inhibition in HCT-116
Description: as §2, §3

p53 = target: T1, p53 (Rattus norvegicus, UniProt P10361); conditions: rats, cited from earlier work
T1 construct: host or cells: rat intestine in vivo
T1 sequence (P10361 whole entry): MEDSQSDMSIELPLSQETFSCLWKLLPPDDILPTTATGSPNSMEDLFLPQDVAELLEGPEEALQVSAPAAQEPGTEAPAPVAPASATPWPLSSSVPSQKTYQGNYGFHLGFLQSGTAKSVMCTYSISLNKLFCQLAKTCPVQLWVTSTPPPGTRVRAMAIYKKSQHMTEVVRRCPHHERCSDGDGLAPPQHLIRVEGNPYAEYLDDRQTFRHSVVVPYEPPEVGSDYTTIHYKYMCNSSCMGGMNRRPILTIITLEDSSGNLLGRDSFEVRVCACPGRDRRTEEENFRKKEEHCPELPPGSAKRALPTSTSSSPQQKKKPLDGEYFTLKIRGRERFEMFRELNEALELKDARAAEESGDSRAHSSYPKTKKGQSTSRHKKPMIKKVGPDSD

| SMILES | Apoptosis inhibition of DLD1 [3] | Apoptosis inhibition of HCT-116 [4] | also measured |
| --- | --- | --- | --- |
| CC[C@@]1(O)C(=O)OCc2c1cc1n(c2=O)Cc2cc3ccccc3nc2-1 [CPT, camptothecin, reference compound] | – | – | effect of CPT on mouse colonic organoids (mouse colonic organoids): induced growth suppression and activation of caspase-3 |
| CCc1c2c(nc3ccc(OC(=O)N4CCC(N5CCCCC5)CC4)cc13)-c1cc3c(c(=O)n1C2)COC(=O)[C@]3(O)CC [CPT-11, irinotecan hydrochloride, reference compound] | – | – | lethality (C57BL/6J mice; 180 mg/kg per day): 30%; lethality (C57BL/6J mice; 215 mg/kg per day): 90%; lethality (C57BL/6J mice; 250 mg/kg per day): 100%; survival at the LD90 of CPT-11, without PUMAi (C57BL/6J mice; CPT-11 215 mg/kg per day x3, WT mice): 10%; % mice compieting treatment ([1]; PUMA KO mice): 100% (6/6); % mice compieting treatment ([1]; WT mice): 73% (8/11); patients with severe diarrhea and nausea [2]: more than 50%; drop in Olfm4+ crypts (RNA ISH) (LGR5+ stem cells): 93%; reduction of LGR5+ crypt cells and fraction of LGR5+ crypts (LGR5+ stem cells): more than 90%; time of peak crypt apoptosis (intestinal crypts): 6 h |
| O=c1[nH]cc(F)c(=O)[nH]1 [Compound 5-FU, 5-fluorouracil] | – | – | patients with chemotherapy induced diarrhea [2]: 50% |
| Cc1ccc(OCC(=O)N/N=C/c2cccc(O)c2)cc1C [Compound 7a] | 41% | 33% | – |
| Cc1ccc(OCC(=O)N/N=C/c2cccc(O)c2)cc1 [Compound 7b] | −2% (no inhibition) | 21% | – |
| COc1cccc(/C=N/NC(=O)COc2cccc(C)c2)c1OC [Compound 7c] | 26% | 21% | – |
| O=C(CCc1ccccc1)N/N=C/c1cccc(O)c1 [Compound 7d] | 24% | 21% | – |
| Cc1ccc(OCC(=O)Nc2ccc(N3CCOCC3)cc2)cc1 [Compound 7e] | 30% | 44% | – |
| Cc1ccc(OCC(=O)Nc2ccc(S(N)(=O)=O)cc2)cc1 [Compound 7f] | −2% (no inhibition) | −8% (no inhibition) | – |
| N#CCc1ccc(NC(=O)COc2ccc3c(c2)CCC3)cc1 [Compound 7g] | 24% | −17% (no inhibition) | – |
| COc1cccc(/C=C/NC(=O)CNc2ccc(C)cc2)c1 [Compound 7h] | 30% | 33% | – |
| Cc1ccc(/C=N/NC(=O)COc2ccc(C)c(C)c2)o1 [Compound 7i] | 26% | 13% | – |
| CC(C)c1ccc(OCC(=O)N/N=C/c2cccnc2)cc1 [Compound 7j] | 26% | −8% (no inhibition) | – |
| CCCCc1c(C)nc(N2CCN(CCO)CC2)[nH]c1=O [Compound 20647237] | 21% | – | – |
| CC(C)CNC(=O)c1ccc2c(c1)nc1n2CCN(C(C)(C)CO)C1 [Compound 20722356] | 36% | – | – |
| Cc1ccc(OCC(O)CN2CCN(CCO)CC2)cc1C (stereo not drawn) [Compound 21487182] | 61% | 35% | – |
| COc1ccc(CCNC(=O)COc2ccc(C)cc2)cc1OC [Compound V1] | 41% | 38% | – |
| CCc1ccc(OCC(=O)NCc2ccc3c(c2)OCO3)cc1 [Compound V2] | 39% | 40% | – |
| Cc1ccc(C(=O)Cn2c3c(sc2=N)CCCC3)cc1 [pifithrin-α] | – | – | delayed cell death and onset of mucositis (p53; CPT-11): did not affect delayed cell death or the onset of mucositis; CPT-11-induced intestinal apoptosis (p53; within the first several hours): reduced CPT-11-induced intestinal apoptosis |
